In patent publication US20250074913A1, “PYRAZOLE DERIVATIVES AS STING AGONISTS” (Hoffmann-La Roche Inc., priority 2022, published 2025):
Where two headings read alike, the source gives them in different places.

Key:
human PBMC = test: hPBMC cytokine release assay (Luminex, IFN-β); assay type: cell-based; details: read-out: Agonist_hPBMC_IFN-β_EC50
Description: This is the cytokines concentration detection with Luminex assay for human PBMC supernatant. Human peripheral blood mononuclear cells (PBMC) are treated by compounds with appropriate time. Multiple cytokines are released in the supernatant in response to the compound stimulation. Luminex assay can measure the cytokines concentration in supernatant and the compounds activity on human PBMC can be evaluated.
Frozen PBMC was thawed and cultured in PRMI1640 (GIBCO 11875-093) whole medium with […] Heat inactivated-FBS (HI—FBS), 1% NEAA, […] in CO2 incubator overnight. Cells were centrifuged at 400×g for 5 minutes at 4° C. and the pellet was re-suspended with complete RPMI1640 medium to concentration of 1×10^6 cells/ml in cell culture flask T75 (Thermo Fisher Scientific). Compounds were serially diluted with DMSO and distributed to 96-well flat bottom cell plate (Corning 3599) with Echo555. 90 μL/well PBMC cells were seeded into the plates with Multidrop (Thermo Fisher Scientific). After 24 hours of incubation in CO2 incubator, cells were centrifuged at 400×g for 5 minutes at room temperature, 80 μL supernatant each well was collected for cytokines release test with luminex assay of Human custom ProcartaPlex 5-plex kit (Thermo Fisher Scientific PPX-05). 10 μL supernatant or standards were added to a mixture of color-coded beads, 5 μL Biotinylated detection antibodies specific to the analytes of interest were added and formed an antibody-antigen sandwich. 10 μL Phycoerythrin (PE)-conjugated streptavidin is added to the plate and then read signal of each well on the Luminex 200™. The raw data was analyzed by Millipore Analyst Software and cytokine concentrations were generated accordingly. The EC50 of corresponding cytokine such as interferon-β (IFN-β) was calculated by the 4-parameter sigmoidal concentration response model fitting.

[1] = test system: interferon regulatory factor (IRF) pathway in THP1-Dual™ cells; test: THP1-Dual reporter gene assay (Agonist_THP1_EC50); assay type: cell-based; details: Homo sapiens, 20-24 hrs compound treatment, Lucia luciferase (IRF) readout
Source text: This is the cellular reporter assay to evaluate compounds' agonism to interferon regulatory factor (IRF) pathway in THP1-Dual™ cells (InvivoGen, cat number thpd-nfis). THP1-Dual™ cells were derived from the human THP-1 monocyte cell line by stable integration lucia luciferase gene, a new secreted luciferase reporter gene, under the control of an ISG54 (interferon-stimulated gene) minimal promoter in conjunction with five interferon (IFN)-stimulated response elements. As a result, THP1-Dual™ cells allow the study of the IRF pathway, by assessing the activity of Lucia luciferase. Lucia luciferase protein is readily measurable in the cell culture supernatant when using QUANTI-Luc™ (InvivoGen, cat: rep-qlcg-500).
After 20-24 hrs compound treatment in THP1-Dual cells, the compounds' agonism to IRF pathway and cell toxicity were tested by measuring luminescence and OD 450 on an Envision plate reader.
On the day of experiment, 30 μL of test medium (RPMI 1640, 2 mM L-glutamine, 25 mM HEPES, […] heat-inactivated fetal bovine serum) was dispensed in a white 384-well plate (Grenier, cat: 781098) containing the serially diluted compounds (final 1% DMSO) transferred by the Echo550 machine. Then 30 μL of cell suspension (˜33,000 cells, 1.1×10^6 cells/mL) per well was added immediately by thermo multidrop combi dispenser for incubation 20-24 h at 37° C., […]. At the end of the incubation, 10 μL of cellular supernatant was transferred to proxiplate 384-plus plate for IRF detection, and then 10 μL of QUANTI-Luc™ Gold solution was added to the plate that proceeded with the measurement immediately. To detect cell viability, 30 μL of the CCK-8 working solution (Dojindo Molecular Technologies, cat: CK04-20) was added to the cell plate, which was Incubated for 2 hrs in the incubator to measure the absorbance at 450 nm using Envision.

[2] = 24 hours incubation, IFN-β in supernatant

Structure (SMILES)	EC50 (human PBMC; prior art compounds (Table 4), IFN-β) [nM]	EC50 (human PBMC; [2]) [nM]	EC50 [1] [nM]
CCn1nc(C)c(O)c1-c1nc(-c2nc(C(N)=O)cc3c2cnn3C)co1 [AE01, reference compound]	40	–	–
Cc1nn(CC=C(F)F)c(-c2n[nH]c(-c3nc(C(N)=O)cc4c3cnn4C)n2)c1O [Example 34, 4-[3-[2-(3,3-difluoroallyl)-4-hydroxy-5-methyl-pyrazol-3-yl]-1H-1,2,4-triazol-5-yl]-1-methyl-pyrazolo[4,3-c]pyridine-6-carboxamide]	–	11	12
CC#CCCn1nc(C)c(O)c1-c1n[nH]c(-c2nc(C(N)=O)cc3c2cnn3C)n1 [Example 45, 4-[3-(4-hydroxy-5-methyl-2-pent-3-ynyl-pyrazol-3-yl)-1H-1,2,4-triazol-5-yl]-1-methyl-pyrazolo[4,3-c]pyridine-6-carboxamide]	–	9	9
Cc1cc2c(C(N)=O)nn(-c3nc(-c4c(O)c(C)nn4CCc4ccc(F)cc4)n[nH]3)c2cn1 [Example 52, 1-[3-[2-[2-(4-fluorophenyl)ethyl]-4-hydroxy-5-methyl-pyrazol-3-yl]-1H-1,2,4-triazol-5-yl]-5-methyl-pyrazolo[3,4-c]pyridine-3-carboxamide]	–	18	13
Cc1cn2c(C(N)=O)nc(-c3nc(-c4c(O)c(C)nn4CCc4ccccc4)n[nH]3)c2cn1 [Example 53, 1-[3-[4-hydroxy-5-methyl-2-(2-phenylethyl)pyrazol-3-yl]-1H-1,2,4-triazol-5-yl]-6-methyl-imidazo[1,5-a]pyrazine-3-carboxamide]	–	26	12
Cc1cc2c(C(N)=O)nn(-c3nc(-c4c(O)c(C)nn4CCc4cccc(F)c4)n[nH]3)c2cn1 [Example 55, 1-(3-(1-(3-fluorophenethyl)-4-hydroxy-3-methyl-1H-pyrazol-5-yl)-1H-1,2,4-triazol-5-yl)-5-methyl-1H-pyrazolo[3,4-c]pyridine-3-carboxamide]	–	32	13
CCCn1nc(C)c(O)c1-c1nc(-n2nc(C(N)=O)c3cc(C)ncc32)co1 [Example 58, 1-(2-(4-hydroxy-3-methyl-1-propyl-1H-pyrazol-5-yl)oxazol-4-yl)-5-methyl-1H-pyrazolo[3,4-c]pyridine-3-carboxamide]	–	17	6
CCCCn1nc(C)c(O)c1-c1nc(-n2nc(C(N)=O)c3cc(C)ncc32)co1 [Example 59, 1-(2-(1-butyl-4-hydroxy-3-methyl-1H-pyrazol-5-yl)oxazol-4-yl)-5-methyl-1H-pyrazolo[3,4-c]pyridine-3-carboxamide]	–	7	10
COCc1ccc(CCn2nc(C)c(O)c2-c2n[nH]c(-n3nc(C(N)=O)c4cc(C)ncc43)n2)cc1 [Example 64, 1-[3-[4-hydroxy-2-[2-[4-(methoxymethyl)phenyl]ethyl]-5-methyl-pyrazol-3-yl]-11H-1,2,4-triazol-5-yl]-5-methyl-pyrazolo[3,4-c]pyridine-3-carboxamide]	–	35	13
Cc1cc2c(C(N)=O)nn(-c3coc(-c4c(O)c(C)nn4CCC(F)F)n3)c2cn1 [Example 67, 1-(2-(1-(3,3-difluoropropyl)-4-hydroxy-3-methyl-1H-pyrazol-5-yl)oxazol-4-yl)-5-methyl-1H-pyrazolo[3,4-c]pyridine-3-carboxamide]	–	24	18
COc1ccc(CCn2nc(C)c(O)c2-c2n[nH]c(-c3nc(C(N)=O)n4cc(C)ncc34)n2)cc1 [Example 70, 1-[3-[4-hydroxy-2-[2-(4-methoxyphenyl)ethyl]-5-methyl-pyrazol-3-yl]-1H-1,2,4-triazol-5-yl]-6-methyl-imidazo[1,5-a]pyrazine-3-carboxamide]	–	10	6
CCCCn1nc(C)c(O)c1-c1n[nH]c(-c2c(F)c(C(N)=O)n3cc(C)ncc23)n1 [Example 76, 8-[3-(2-butyl-4-hydroxy-5-methyl-pyrazol-3-yl)-1H-1,2,4-triazol-5-yl]-7-fluoro-3-methyl-pyrrolo[1,2-a]pyrazine-6-carboxamide]	–	14	15
CCCCn1nc(C)c(O)c1-c1n[nH]c(-c2nc(C(N)=O)n3cc(C)ncc23)n1 [Example 77, 1-[3-(2-butyl-4-hydroxy-5-methyl-pyrazol-3-yl)-1H-1,2,4-triazol-5-yl]-6-methyl-imidazo[1,5-a]pyrazine-3-carboxamide]	–	20	17
CCCn1nc(C)c(O)c1-c1n[nH]c(-c2nc(C(N)=O)n3cc(C)ncc23)n1 [Example 80, 1-[3-(4-hydroxy-5-methyl-2-propyl-pyrazol-3-yl)-1H-1,2,4-triazol-5-yl]-6-methyl-imidazo[1,5-a]pyrazine-3-carboxamide]	–	42	20
Cc1nn(CCc2ccccc2)c(-c2n[nH]c(-c3nc(C(N)=O)cc4c3cnn4C)n2)c1O [Example 82, 4-(5-(4-hydroxy-3-methyl-1-phenethyl-1H-pyrazol-5-yl)-2H-1,2,4-triazol-3-yl)-1-methyl-1H-pyrazolo[4,3-c]pyridine-6-carboxamide]	–	29	8
CCCn1nc(C)c(O)c1-c1nc(-n2nc(C(N)=O)c3cc(C)ncc32)c(CO)o1 [Example 83, 1-[5-(hydroxymethyl)-2-(4-hydroxy-5-methyl-2-propyl-pyrazol-3-yl)oxazol-4-yl]-5-methyl-pyrazolo[3,4-c]pyridine-3-carboxamide]	–	23	22
CCCn1nc(C)c(O)c1-c1nc(-n2nc(C(N)=O)c3cc(C)ncc32)n(C)n1 [Example 84, 1-[5-(4-hydroxy-5-methyl-2-propyl-pyrazol-3-yl)-2-methyl-1,2,4-triazol-3-yl]-5-methyl-pyrazolo[3,4-c]pyridine-3-carboxamide]	–	18	34
CCCCn1nc(C)c(O)c1-c1nc(-c2nc(C(N)=O)n3cc(C)ncc23)co1 [Example 86, 1-[2-(2-butyl-4-hydroxy-5-methyl-pyrazol-3-yl)oxazol-4-yl]-6-methyl-imidazo[1,5-a]pyrazine-3-carboxamide]	–	30	16
COCc1ccc(CCn2nc(C)c(O)c2-c2nc(-n3nc(C(N)=O)c4cc(C)ncc43)co2)cc1 [Example 89, 1-[2-[4-hydroxy-2-[2-[4-(methoxymethyl)phenyl]ethyl]-5-methyl-pyrazol-3-yl]oxazol-4-yl]-5-methyl-pyrazolo[3,4-c]pyridine-3-carboxamide]	–	–	55
Cc1cn2c(C(N)=O)nc(-c3nc(-c4c(O)c(C)nn4CCc4nccs4)n[nH]3)c2cn1 [Example 90, 1-[3-[4-hydroxy-5-methyl-2-(2-thiazol-2-ylethyl)pyrazol-3-yl]-1H-1,2,4-triazol-5-yl]-6-methyl-imidazo[1,5-a]pyrazine-3-carboxamide]	–	–	30
CCCn1nc(C)c(O)c1-c1n[nH]c(-c2cc(C(N)=O)n3cc(C)ncc23)n1 [Example 91, 8-[3-(4-hydroxy-5-methyl-2-propyl-pyrazol-3-yl)-1H-1,2,4-triazol-5-yl]-3-methyl-pyrrolo[1,2-a]pyrazine-6-carboxamide]	–	38	16
CCCn1nc(C)c(O)c1-c1nc(-c2nc(C(N)=O)n3cc(C)ncc23)n(C)n1 [Example 92, 1-[5-(4-hydroxy-5-methyl-2-propyl-pyrazol-3-yl)-2-methyl-1,2,4-triazol-3-yl]-6-methyl-imidazo[1,5-a]pyrazine-3-carboxamide]	–	–	222
CCCn1nc(C)c(O)c1-c1nc(-c2c(F)c(C(N)=O)n3cc(C)ncc23)co1 [Example 93, 7-fluoro-8-[2-(4-hydroxy-5-methyl-2-propyl-pyrazol-3-yl)oxazol-4-yl]-3-methyl-pyrrolo[1,2-a]pyrazine-6-carboxamide]	–	9	6
